# Reference: the kinase profiling compilation of Christmann-Franck et al. (2016)
# Columns and labels:
# Test in all cases: KINOMEscan competition binding
# Details in all cases: compound 1.0 µM
# BMPR2 (human) = BMPR2 (human) (UniProt Q13873)
# BTK (human) = BTK (human) (UniProt Q06187)
# CAMK1D (human) = CAMK1D (human) (UniProt Q8IU85)
# CAMK2G (human) = CAMK2G (human) (UniProt Q13555)
# CAMKK2 (human) = CAMKK2 (human) (UniProt Q96RR4)
# CDK14 (human) = CDK14 (human) (UniProt O94921)
# CDK2 (human) = CDK2 (human) (UniProt P24941)
# CDK3 (human) = CDK3 (human) (UniProt Q00526)
# CDK7 (human) = CDK7 (human) (UniProt P50613)
# CLK1 (human) = CLK1 (human) (UniProt P49759)
# CLK2 (human) = CLK2 (human) (UniProt P49760)
# CLK3 (human) = CLK3 (human) (UniProt P49761)
# CRK2 (P.falciparum) = CRK2 (P.falciparum) (UniProt P61075)
# CSNK1G2 (human) = CSNK1G2 (human) (UniProt P78368)
# CSNK1G2 (human), sequence (P78368 whole entry, looked up): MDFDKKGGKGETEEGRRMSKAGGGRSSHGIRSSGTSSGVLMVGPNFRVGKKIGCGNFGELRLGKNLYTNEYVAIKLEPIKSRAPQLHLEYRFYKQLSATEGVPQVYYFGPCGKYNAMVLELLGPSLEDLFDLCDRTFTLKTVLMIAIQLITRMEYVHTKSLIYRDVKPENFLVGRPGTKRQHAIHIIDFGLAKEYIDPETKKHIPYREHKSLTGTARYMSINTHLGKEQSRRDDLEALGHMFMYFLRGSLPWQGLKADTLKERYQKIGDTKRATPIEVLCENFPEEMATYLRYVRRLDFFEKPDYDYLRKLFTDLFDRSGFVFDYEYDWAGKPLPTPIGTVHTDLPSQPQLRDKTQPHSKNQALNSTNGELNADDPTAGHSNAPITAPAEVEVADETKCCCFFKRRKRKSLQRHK
# DCLK2 (human) = DCLK2 (human) (UniProt Q8N568)
# EPHB6 (human) = EPHB6 (human) (UniProt O15197)
# EPHB6 (human), sequence (O15197 whole entry, looked up): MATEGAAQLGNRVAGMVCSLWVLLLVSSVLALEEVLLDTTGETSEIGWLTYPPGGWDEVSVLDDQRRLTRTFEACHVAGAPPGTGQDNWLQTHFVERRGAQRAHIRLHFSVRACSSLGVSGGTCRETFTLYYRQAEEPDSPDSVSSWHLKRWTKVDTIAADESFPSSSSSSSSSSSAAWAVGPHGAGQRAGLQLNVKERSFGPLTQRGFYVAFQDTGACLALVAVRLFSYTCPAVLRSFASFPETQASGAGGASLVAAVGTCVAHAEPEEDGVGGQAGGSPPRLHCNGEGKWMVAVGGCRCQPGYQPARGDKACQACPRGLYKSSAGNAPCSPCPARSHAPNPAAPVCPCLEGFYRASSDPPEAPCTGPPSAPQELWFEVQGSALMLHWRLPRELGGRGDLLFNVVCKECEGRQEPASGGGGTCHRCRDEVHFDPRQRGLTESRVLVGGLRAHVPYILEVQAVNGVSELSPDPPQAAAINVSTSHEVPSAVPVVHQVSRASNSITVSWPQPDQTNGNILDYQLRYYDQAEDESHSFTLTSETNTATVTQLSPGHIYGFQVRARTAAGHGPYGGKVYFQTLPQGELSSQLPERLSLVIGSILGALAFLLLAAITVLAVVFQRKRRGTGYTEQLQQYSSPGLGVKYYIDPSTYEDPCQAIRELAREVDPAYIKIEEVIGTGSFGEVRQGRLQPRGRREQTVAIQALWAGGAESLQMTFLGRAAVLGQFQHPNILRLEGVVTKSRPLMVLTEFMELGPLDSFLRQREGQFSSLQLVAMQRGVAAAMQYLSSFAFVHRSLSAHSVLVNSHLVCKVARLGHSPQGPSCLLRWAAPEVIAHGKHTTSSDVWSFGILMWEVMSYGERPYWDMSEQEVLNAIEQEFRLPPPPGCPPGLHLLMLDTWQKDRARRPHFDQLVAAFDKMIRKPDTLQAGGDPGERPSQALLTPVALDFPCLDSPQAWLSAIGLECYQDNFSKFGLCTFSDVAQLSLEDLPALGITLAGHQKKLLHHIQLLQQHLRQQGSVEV
# [1] = system: FLT3 (human), P36888 [R834Q]
# FRK (human) = FRK (human) (UniProt P42685)
# FYN (human) = FYN (human) (UniProt P06241)
# FYN (human), sequence (P06241 whole entry, looked up): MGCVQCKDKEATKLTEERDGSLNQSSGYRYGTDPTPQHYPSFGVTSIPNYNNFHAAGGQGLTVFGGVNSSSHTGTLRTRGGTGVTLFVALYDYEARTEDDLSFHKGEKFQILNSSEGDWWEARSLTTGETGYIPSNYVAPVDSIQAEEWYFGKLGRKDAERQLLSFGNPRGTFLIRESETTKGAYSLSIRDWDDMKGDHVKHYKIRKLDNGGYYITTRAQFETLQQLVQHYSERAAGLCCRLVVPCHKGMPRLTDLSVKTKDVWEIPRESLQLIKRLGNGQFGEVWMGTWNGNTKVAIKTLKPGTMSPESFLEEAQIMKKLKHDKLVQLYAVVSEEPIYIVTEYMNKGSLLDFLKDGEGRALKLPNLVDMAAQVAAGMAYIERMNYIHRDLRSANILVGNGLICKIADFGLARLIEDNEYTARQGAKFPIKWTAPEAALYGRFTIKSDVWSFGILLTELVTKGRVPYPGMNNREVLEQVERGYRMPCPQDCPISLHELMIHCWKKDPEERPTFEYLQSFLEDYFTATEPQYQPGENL
# HUNK (human) = HUNK (human) (UniProt P57058)
# ITK (human) = ITK (human) (UniProt Q08881)
# [2] = target: JAK3 JH1 catalytic (human) (UniProt P52333)
# [3] = system: KIT (human), P10721 [V559D]
# LCK (human) = LCK (human) (UniProt P06239)
# MAP2K3 (human) = MAP2K3 (human) (UniProt P46734)
# MAP3K12 (human) = MAP3K12 (human) (UniProt Q12852)
# MAP3K4 (human) = MAP3K4 (human) (UniProt Q9Y6R4)
# MAPK3 (human) = MAPK3 (human) (UniProt P27361)
# MAPK3 (human), sequence (P27361 whole entry, looked up): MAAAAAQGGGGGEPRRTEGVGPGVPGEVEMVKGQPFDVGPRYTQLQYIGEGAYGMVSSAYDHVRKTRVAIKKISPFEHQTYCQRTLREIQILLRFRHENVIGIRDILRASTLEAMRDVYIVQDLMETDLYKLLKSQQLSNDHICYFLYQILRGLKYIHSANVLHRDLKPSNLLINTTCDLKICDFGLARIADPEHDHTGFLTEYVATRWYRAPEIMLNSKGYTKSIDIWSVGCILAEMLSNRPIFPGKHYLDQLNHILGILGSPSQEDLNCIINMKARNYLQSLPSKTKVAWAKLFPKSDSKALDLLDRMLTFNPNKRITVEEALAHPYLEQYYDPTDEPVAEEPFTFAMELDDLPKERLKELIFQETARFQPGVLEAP
# MLTK (human) = MLTK (human) (UniProt Q9NYL2)
# MLTK (human), sequence (Q9NYL2 whole entry, looked up): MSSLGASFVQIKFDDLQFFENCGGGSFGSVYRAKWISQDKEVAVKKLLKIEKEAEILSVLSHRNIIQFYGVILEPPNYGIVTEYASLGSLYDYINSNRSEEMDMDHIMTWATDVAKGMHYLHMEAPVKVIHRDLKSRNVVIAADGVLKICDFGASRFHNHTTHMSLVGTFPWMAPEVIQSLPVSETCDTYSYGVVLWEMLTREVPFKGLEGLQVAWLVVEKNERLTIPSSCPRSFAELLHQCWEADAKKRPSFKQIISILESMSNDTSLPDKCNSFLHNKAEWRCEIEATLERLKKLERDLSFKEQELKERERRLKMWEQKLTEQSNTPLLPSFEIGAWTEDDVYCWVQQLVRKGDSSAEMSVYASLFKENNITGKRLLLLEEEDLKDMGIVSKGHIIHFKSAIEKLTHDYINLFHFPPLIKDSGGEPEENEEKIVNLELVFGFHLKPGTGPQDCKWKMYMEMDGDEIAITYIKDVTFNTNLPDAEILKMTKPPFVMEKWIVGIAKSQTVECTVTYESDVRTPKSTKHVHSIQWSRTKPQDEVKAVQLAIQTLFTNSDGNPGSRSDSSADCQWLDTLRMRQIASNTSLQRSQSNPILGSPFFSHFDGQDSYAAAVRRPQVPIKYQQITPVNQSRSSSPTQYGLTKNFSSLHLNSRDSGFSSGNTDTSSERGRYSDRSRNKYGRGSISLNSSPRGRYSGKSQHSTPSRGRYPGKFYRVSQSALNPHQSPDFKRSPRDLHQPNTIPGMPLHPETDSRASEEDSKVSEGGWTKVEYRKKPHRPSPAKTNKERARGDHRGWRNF
# MUSK (human) = MUSK (human) (UniProt O15146)
# NEK4 (human) = NEK4 (human) (UniProt P51957)
# PAK1 (human) = PAK1 (human) (UniProt Q13153)
# [4] = system: PIK3CA (human), P42336 [H1047L]
# PRKAA2 (human) = PRKAA2 (human) (UniProt P54646)
# RAF1 (human) = RAF1 (human) (UniProt P04049)
# RET (human) = RET (human) (UniProt P07949)
# RET (human), sequence (P07949 whole entry, looked up): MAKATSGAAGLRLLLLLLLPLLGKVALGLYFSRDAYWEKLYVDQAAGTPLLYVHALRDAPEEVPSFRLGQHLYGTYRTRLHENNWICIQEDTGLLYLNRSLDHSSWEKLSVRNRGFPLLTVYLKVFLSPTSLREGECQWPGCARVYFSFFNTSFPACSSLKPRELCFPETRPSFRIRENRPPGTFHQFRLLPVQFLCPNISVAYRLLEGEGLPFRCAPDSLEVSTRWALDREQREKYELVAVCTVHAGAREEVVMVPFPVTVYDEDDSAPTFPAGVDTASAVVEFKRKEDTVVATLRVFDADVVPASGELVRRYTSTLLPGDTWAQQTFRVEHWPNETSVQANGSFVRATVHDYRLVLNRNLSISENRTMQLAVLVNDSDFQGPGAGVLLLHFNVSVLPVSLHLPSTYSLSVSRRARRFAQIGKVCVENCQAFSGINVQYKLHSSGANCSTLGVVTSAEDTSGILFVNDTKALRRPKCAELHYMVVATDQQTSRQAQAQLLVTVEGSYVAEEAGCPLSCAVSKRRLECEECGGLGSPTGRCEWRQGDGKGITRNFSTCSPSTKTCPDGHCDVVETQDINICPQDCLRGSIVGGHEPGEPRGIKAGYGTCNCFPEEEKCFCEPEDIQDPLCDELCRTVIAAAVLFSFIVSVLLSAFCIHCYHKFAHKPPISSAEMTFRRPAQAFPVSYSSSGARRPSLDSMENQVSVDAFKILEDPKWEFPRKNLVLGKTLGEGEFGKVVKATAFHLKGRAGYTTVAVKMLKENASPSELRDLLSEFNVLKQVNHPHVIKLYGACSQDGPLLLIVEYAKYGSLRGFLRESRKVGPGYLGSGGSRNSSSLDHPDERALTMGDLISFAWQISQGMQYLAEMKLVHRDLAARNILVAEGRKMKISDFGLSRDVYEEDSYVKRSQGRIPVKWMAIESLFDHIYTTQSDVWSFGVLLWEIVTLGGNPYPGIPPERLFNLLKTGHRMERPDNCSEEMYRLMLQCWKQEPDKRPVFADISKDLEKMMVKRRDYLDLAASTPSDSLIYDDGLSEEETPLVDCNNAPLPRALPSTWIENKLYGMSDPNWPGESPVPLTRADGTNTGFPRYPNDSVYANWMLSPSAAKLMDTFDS
# RPS6KA6 KD2 (human) = RPS6KA6 KD2 (human) (UniProt Q9UK32)
# SGK110 (human) = SGK110 (human) (UniProt P0C264)
# SLK (human) = SLK (human) (UniProt Q9H2G2)
# SRPK3 (human) = SRPK3 (human) (UniProt Q9UPE1)
# TESK1 (human) = TESK1 (human) (UniProt Q15569)
# TESK1 (human), sequence (Q15569 whole entry, looked up): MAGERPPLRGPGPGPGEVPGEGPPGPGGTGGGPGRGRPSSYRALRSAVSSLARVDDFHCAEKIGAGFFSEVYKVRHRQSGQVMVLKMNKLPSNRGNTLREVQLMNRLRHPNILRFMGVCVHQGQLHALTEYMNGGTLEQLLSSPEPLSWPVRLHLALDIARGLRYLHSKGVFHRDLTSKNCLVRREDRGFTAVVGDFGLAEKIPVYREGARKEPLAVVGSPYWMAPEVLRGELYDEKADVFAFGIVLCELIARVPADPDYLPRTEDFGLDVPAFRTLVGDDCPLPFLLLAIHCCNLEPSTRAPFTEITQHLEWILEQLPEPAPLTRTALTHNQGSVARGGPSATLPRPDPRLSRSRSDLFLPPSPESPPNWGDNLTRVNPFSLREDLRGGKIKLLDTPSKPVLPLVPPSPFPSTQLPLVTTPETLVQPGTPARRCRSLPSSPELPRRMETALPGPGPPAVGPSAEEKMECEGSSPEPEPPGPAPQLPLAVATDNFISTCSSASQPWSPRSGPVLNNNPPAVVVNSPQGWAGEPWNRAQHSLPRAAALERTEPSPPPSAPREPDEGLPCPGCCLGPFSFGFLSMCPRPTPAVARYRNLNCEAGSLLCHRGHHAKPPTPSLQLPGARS
# TYRO3 (human) = TYRO3 (human) (UniProt Q06418)
# WEE2 (human) = WEE2 (human) (UniProt P0C1S8)
compound,measurement,setting,value
CN(C)C/C=C/C(=O)Nc1cccc(C(=O)Nc2ccc(Nc3nccc(-c4cccnc4)n3)cc2)c1,"kinase still bound, per cent of control",BMPR2 (human),64%
same,"kinase still bound, per cent of control",BTK (human),76%
same,"kinase still bound, per cent of control",CAMK1D (human),100%
same,"kinase still bound, per cent of control",CAMK2G (human),99%
same,"kinase still bound, per cent of control",CAMKK2 (human),40%
same,"kinase still bound, per cent of control",CDK14 (human),53%
same,"kinase still bound, per cent of control",CDK2 (human),100%
same,"kinase still bound, per cent of control",CDK3 (human),100%
same,"kinase still bound, per cent of control",CDK7 (human),20%
same,"kinase still bound, per cent of control",CLK1 (human),12%
same,"kinase still bound, per cent of control",CLK2 (human),18%
same,"kinase still bound, per cent of control",CLK3 (human),84%
same,"kinase still bound, per cent of control",CRK2 (P.falciparum),100%
same,"kinase still bound, per cent of control",CSNK1G2 (human),12%
same,"kinase still bound, per cent of control",DCLK2 (human),100%
same,"kinase still bound, per cent of control",EPHB6 (human),18%
same,"kinase still bound, per cent of control",[1],74%
same,"kinase still bound, per cent of control",FRK (human),90%
same,"kinase still bound, per cent of control",FYN (human),90%
same,"kinase still bound, per cent of control",HUNK (human),65%
same,"kinase still bound, per cent of control",ITK (human),85%
same,"kinase still bound, per cent of control",[2],27%
same,"kinase still bound, per cent of control",[3],1%
same,"kinase still bound, per cent of control",LCK (human),100%
same,"kinase still bound, per cent of control",MAP2K3 (human),41%
same,"kinase still bound, per cent of control",MAP3K12 (human),72%
same,"kinase still bound, per cent of control",MAP3K4 (human),88%
same,"kinase still bound, per cent of control",MAPK3 (human),100%
same,"kinase still bound, per cent of control",MLTK (human),46%
same,"kinase still bound, per cent of control",MUSK (human),94%
same,"kinase still bound, per cent of control",NEK4 (human),83%
same,"kinase still bound, per cent of control",PAK1 (human),69%
same,"kinase still bound, per cent of control",[4],100%
same,"kinase still bound, per cent of control",PRKAA2 (human),81%
same,"kinase still bound, per cent of control",RAF1 (human),100%
same,"kinase still bound, per cent of control",RET (human),100%
same,"kinase still bound, per cent of control",RPS6KA6 KD2 (human),100%
same,"kinase still bound, per cent of control",SGK110 (human),100%
same,"kinase still bound, per cent of control",SLK (human),100%
same,"kinase still bound, per cent of control",SRPK3 (human),28%
same,"kinase still bound, per cent of control",TESK1 (human),88%
same,"kinase still bound, per cent of control",TYRO3 (human),87%
same,"kinase still bound, per cent of control",WEE2 (human),100%
Cc1cc(NC(=O)c2cccc(NC(=O)/C=C/CN(C)C)c2)ccc1Nc1nccc(-c2cccnc2)n1,"kinase still bound, per cent of control",BMPR2 (human),77%
same,"kinase still bound, per cent of control",BTK (human),100%
same,"kinase still bound, per cent of control",CAMK1D (human),100%
same,"kinase still bound, per cent of control",CAMK2G (human),100%
same,"kinase still bound, per cent of control",CAMKK2 (human),93%
same,"kinase still bound, per cent of control",CDK14 (human),88%
same,"kinase still bound, per cent of control",CDK2 (human),77%
same,"kinase still bound, per cent of control",CDK3 (human),100%
same,"kinase still bound, per cent of control",CDK7 (human),39%
same,"kinase still bound, per cent of control",CLK1 (human),100%
same,"kinase still bound, per cent of control",CLK2 (human),95%
same,"kinase still bound, per cent of control",CLK3 (human),100%
same,"kinase still bound, per cent of control",CRK2 (P.falciparum),90%
same,"kinase still bound, per cent of control",CSNK1G2 (human),73%
same,"kinase still bound, per cent of control",DCLK2 (human),94%
same,"kinase still bound, per cent of control",EPHB6 (human),71%
same,"kinase still bound, per cent of control",[1],100%
same,"kinase still bound, per cent of control",FRK (human),100%
same,"kinase still bound, per cent of control",FYN (human),78%
same,"kinase still bound, per cent of control",HUNK (human),53%
same,"kinase still bound, per cent of control",ITK (human),100%
same,"kinase still bound, per cent of control",[2],87%
same,"kinase still bound, per cent of control",[3],0.95%
same,"kinase still bound, per cent of control",LCK (human),100%
same,"kinase still bound, per cent of control",MAP2K3 (human),95%
same,"kinase still bound, per cent of control",MAP3K12 (human),99%
same,"kinase still bound, per cent of control",MAP3K4 (human),100%
same,"kinase still bound, per cent of control",MAPK3 (human),100%
same,"kinase still bound, per cent of control",MLTK (human),100%
same,"kinase still bound, per cent of control",MUSK (human),100%
same,"kinase still bound, per cent of control",NEK4 (human),79%
same,"kinase still bound, per cent of control",PAK1 (human),100%
same,"kinase still bound, per cent of control",[4],100%
same,"kinase still bound, per cent of control",PRKAA2 (human),84%
same,"kinase still bound, per cent of control",RAF1 (human),93%
same,"kinase still bound, per cent of control",RET (human),100%
same,"kinase still bound, per cent of control",RPS6KA6 KD2 (human),76%
same,"kinase still bound, per cent of control",SGK110 (human),95%
same,"kinase still bound, per cent of control",SLK (human),100%
same,"kinase still bound, per cent of control",SRPK3 (human),70%
same,"kinase still bound, per cent of control",TESK1 (human),100%
same,"kinase still bound, per cent of control",TYRO3 (human),85%
same,"kinase still bound, per cent of control",WEE2 (human),100%
